Activity calls are given as the source filed them. The rule behind the calls is not given here.
Legend:
Rattus norvegicus [1] = assay: Anticonvulsant activity in SwissRattus norvegicus albino (rat) assessed as protection against pentamethylene tetrazole-induced seizures at 5 mg/kg, ip administered for 15 min prior to pentamethylene tetrazole induction relative to placebo; format: functional
Rattus norvegicus [2] = assay: Anticonvulsant activity in SwissRattus norvegicus albino (rat) assessed as protection against pentamethylene tetrazole-induced seizures at 10 mg/kg, ip administered for 15 min prior to pentamethylene tetrazole induction relative to placebo; format: functional
Rattus norvegicus [3] = assay: Toxicity in SwissRattus norvegicus albino (rat) up to 10 mg/kg, ip measured for 24 hr; format: organism-based, Swiss albino; design: dose 10 mg/kg, route intraperitoneal; conditions: in vivo

SMILES	Activity (Rattus norvegicus [1]; Swiss albino)	Activity (Rattus norvegicus [2]; Swiss albino)	Activity (Rattus norvegicus [1]; route intraperitoneal) [%]	Activity (Rattus norvegicus [2]; route intraperitoneal) [%]	Activity (Rattus norvegicus [3])
CCOC(=O)c1[nH]c(/C=C/c2ccc([N+](=O)[O-])cc2)c(C(=O)OCC)c1C	inactive	inactive	–	–	–
Cc1c(C(=O)NNC(N)=S)[nH]c(/C=C/c2ccc(O)cc2)c1C(=O)NNC(N)=S	–	–	0	0	Non-toxic
O=C1NC(=O)C(c2ccccc2)(c2ccccc2)N1 [PHENYTOIN]	–	–	–	98	Non-toxic
Cc1c(C(=O)NNC(N)=S)[nH]c(/C=C/c2ccc(N(C)C)cc2)c1C(=O)NNC(N)=S	–	–	21	46	Non-toxic
CCOC(=O)c1[nH]c(/C=C/c2ccc(N(C)C)cc2)c(C(=O)OCC)c1C	inactive	inactive	–	–	–
COc1ccc(/C=C/c2[nH]c(C(=O)NNC(N)=S)c(C)c2C(=O)NNC(N)=S)cc1	–	–	0	0	Non-toxic
CCOC(=O)c1[nH]c(/C=C/c2ccc(O)cc2)c(C(=O)OCC)c1C	inactive	inactive	–	–	–
CCOC(=O)c1[nH]c(/C=C/c2ccc(Cl)cc2)c(C(=O)OCC)c1C	inactive	inactive	–	–	–
CCOC(=O)c1[nH]c(/C=C/c2ccc(OC)cc2)c(C(=O)OCC)c1C	inactive	inactive	–	–	–
Cc1c(C(=O)NNC(N)=S)[nH]c(/C=C/c2ccccc2)c1C(=O)NNC(N)=S	–	–	33	66	Non-toxic
Cc1c(C(=O)NNC(N)=S)[nH]c(/C=C/c2ccc(Cl)cc2)c1C(=O)NNC(N)=S	–	–	19	48	Non-toxic
CCOC(=O)c1[nH]c(/C=C/c2ccccc2)c(C(=O)OCC)c1C	inactive	inactive	–	–	–
Cc1c(C(=O)NNC(N)=S)[nH]c(/C=C/c2ccc([N+](=O)[O-])cc2)c1C(=O)NNC(N)=S	–	–	0	0	Non-toxic
